In patent US10670605B2, “Cysteine reactive probes and uses thereof” (The Scripps Research Institute, priority 2015, dated 2020):
Blank lines part the entries; values can stand above or below the molecule they belong to.

Key:
[1] = biological target: T1, cysteines in MDA-MB-231 and Ramos cells (Homo sapiens, UniProt Q13418); assay: Competitive isoTOP-ABPP in situ (fragment-treated cells); type: cell-based
T1 sequence (Q13418 1-452): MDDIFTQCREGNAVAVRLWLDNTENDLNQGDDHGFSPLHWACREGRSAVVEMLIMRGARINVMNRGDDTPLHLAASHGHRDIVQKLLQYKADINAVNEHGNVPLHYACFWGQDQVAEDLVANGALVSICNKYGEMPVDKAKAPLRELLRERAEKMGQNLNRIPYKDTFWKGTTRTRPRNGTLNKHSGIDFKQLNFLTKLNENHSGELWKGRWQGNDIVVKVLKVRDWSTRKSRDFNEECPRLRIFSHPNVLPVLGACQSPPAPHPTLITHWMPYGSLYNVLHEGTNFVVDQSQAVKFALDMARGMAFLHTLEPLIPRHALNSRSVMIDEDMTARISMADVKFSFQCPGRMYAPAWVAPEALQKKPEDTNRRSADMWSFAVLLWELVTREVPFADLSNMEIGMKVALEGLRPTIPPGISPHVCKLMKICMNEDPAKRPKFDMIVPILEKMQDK

[2] = biological target: cysteines in MDA-MB-231 and Ramos cells (Homo sapiens, UniProt Q9BXW7); assay: as above; type: cell-based
Sequence of cysteines in MDA-MB-231 and Ramos cells (Homo sapiens, UniProt Q9BXW7) (Q9BXW7 24-423): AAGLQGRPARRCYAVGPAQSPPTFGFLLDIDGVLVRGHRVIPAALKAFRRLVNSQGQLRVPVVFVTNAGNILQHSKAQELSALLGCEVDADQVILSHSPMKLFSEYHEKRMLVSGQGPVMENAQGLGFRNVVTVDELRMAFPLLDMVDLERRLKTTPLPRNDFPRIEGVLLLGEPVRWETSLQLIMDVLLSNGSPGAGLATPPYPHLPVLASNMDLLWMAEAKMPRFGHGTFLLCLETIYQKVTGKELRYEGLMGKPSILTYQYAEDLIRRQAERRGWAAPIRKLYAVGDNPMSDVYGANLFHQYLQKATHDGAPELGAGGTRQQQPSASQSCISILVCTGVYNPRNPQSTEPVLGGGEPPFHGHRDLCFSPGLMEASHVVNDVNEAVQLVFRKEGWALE

[3] = biological target: T2, cysteines in MDA-MB-231 and Ramos cells (Homo sapiens, UniProt Q9NRG0); assay: as above; type: cell-based
T2 sequence (Q9NRG0 1-131): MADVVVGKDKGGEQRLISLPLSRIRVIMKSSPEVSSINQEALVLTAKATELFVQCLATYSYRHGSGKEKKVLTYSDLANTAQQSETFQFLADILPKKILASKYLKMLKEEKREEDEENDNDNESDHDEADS

[4] = biological target: T3, KDM4B C694 (O94953) (Homo sapiens, UniProt O94953); assay: Competitive isoTOP-ABPP, cell lysates; type: binding
T3 sequence (O94953 1-1096): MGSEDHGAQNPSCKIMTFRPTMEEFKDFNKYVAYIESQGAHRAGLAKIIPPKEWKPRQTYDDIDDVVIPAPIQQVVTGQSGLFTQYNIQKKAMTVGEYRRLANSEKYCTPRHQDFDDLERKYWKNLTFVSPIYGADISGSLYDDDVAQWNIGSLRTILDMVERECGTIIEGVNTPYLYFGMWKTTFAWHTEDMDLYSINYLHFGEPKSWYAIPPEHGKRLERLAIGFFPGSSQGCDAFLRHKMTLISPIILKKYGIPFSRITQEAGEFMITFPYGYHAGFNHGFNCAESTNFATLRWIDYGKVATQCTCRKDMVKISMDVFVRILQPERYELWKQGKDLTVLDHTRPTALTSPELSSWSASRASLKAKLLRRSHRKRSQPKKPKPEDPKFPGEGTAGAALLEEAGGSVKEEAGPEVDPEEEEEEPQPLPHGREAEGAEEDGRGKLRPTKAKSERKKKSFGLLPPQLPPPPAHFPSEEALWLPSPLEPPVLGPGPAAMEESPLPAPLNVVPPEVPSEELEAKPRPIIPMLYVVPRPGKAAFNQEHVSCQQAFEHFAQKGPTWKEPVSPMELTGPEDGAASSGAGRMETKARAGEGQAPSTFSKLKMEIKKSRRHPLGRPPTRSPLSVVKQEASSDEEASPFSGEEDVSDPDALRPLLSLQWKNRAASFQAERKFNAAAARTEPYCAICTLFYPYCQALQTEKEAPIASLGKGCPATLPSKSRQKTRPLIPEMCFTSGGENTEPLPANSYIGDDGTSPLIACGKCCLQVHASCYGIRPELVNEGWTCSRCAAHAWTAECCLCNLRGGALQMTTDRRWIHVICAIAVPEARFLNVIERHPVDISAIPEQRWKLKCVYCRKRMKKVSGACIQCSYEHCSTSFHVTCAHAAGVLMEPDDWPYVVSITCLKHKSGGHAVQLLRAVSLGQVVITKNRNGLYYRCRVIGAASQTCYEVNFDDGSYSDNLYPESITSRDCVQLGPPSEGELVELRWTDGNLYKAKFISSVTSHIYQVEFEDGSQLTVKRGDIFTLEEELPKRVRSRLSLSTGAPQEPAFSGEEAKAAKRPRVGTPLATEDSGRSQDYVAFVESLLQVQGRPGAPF

isoTOP-ABPP reactivity Q13418_C346 ILK ([1]; 200 μM, insitu, 231): 1.4
isoTOP-ABPP reactivity Q9BXW7_C392 CECR5 ([2]; 200 μM, insitu, 231): 3.6
isoTOP-ABPP reactivity Q9NRG0_C55 CHRAC1 ([3]; 200 μM, insitu, 231): 20.0
R value (DMSO/fragment) ([4]; 500 μM, in vitro, MDA-MB-231): 20.0
R value (DMSO/fragment) ([4]; 500 μM, invitro, ramos): 5.1
SMILES: COc1ccc2c(c1)CCCN2C(=O)CCl [compound 2]

R value (DMSO/fragment) ([4]; 500 μM, in vitro, MDA-MB-231): 20.0
R value (DMSO/fragment) ([4]; 500 μM, invitro, ramos): 7.4
SMILES: O=C(CCl)Nc1cc(C(F)(F)F)cc(C(F)(F)F)c1 [compound 3]

isoTOP-ABPP reactivity Q13418_C346 ILK ([1]; 100 μM in situ 231): 0.8
isoTOP-ABPP reactivity Q9BXW7_C392 CECR5 ([2]; 100 μM in situ 231): 2.2
isoTOP-ABPP reactivity Q9NRG0_C55 CHRAC1 ([3]; 100 μM in situ 231): 20.0
R value (DMSO/fragment) ([4]; 250 μM, in vitro, MDA-MB-231): 20.0
SMILES: COc1ccc(C2CC(c3cccs3)=NN2C(=O)CCl)cc1 (centres unmarked) [compound 4]

isoTOP-ABPP ratio, O94953_C694 ([4]; 500 μM, invitro, 231): 1.1
SMILES: CNS(=O)(=O)C=Cc1ccc2c(ccn2Cc2ccccc2)c1 [compound 6]

isoTOP-ABPP reactivity Q9BXW7_C392 CECR5 ([2]; 200 μM, insitu, 231): 3.2
isoTOP-ABPP reactivity Q9NRG0_C55 CHRAC1 ([3]; 200 μM, insitu, 231): 7.4
SMILES: COc1cc2c(cc1OC)CN(C(=O)CCl)CC2 [compound 8]

isoTOP-ABPP reactivity Q13418_C346 ILK ([1]; 200 μM, insitu, 231): 2.7
isoTOP-ABPP reactivity Q9BXW7_C392 CECR5 ([2]; 200 μM, insitu, 231): 1.5
isoTOP-ABPP reactivity Q9NRG0_C55 CHRAC1 ([3]; 200 μM, insitu, 231): 2.9
SMILES: O=C(CCl)N1CCC(Cc2ccccc2)CC1 [compound 9]

isoTOP-ABPP ratio Q13418_C346 ([1]; 200 μM, insitu, 231): 1.1
isoTOP-ABPP ratio Q13418_C346 ([1]; 200 μM, insitu, ramos): 8.3
isoTOP-ABPP ratio Q9BXW7_C392 ([2]; 200 μM, insitu, 231): 20.0
isoTOP-ABPP ratio Q9NRG0_C55 ([3]; 200 μM, insitu, 231): 2.7
isoTOP-ABPP ratio, O94953_C694 ([4]; 500 μM, invitro, ramos): 1.4
SMILES: O=C(CCl)N1CCN(S(=O)(=O)c2ccccc2F)CC1 [compound 10]

isoTOP-ABPP ratio Q13418_C346 ([1]; 100 μM in situ 231): 0.6
isoTOP-ABPP ratio Q9BXW7_C392 ([2]; 100 μM in situ 231): 1.1
isoTOP-ABPP ratio Q9NRG0_C55 ([3]; 100 μM in situ 231): 1.1
isoTOP-ABPP ratio, O94953_C694 ([4]; 500 μM, invitro, ramos): 1.9
SMILES: Cn1cc(S(=O)(=O)N2CCOCC2)cc1C(=O)NC(=O)CCl [compound 11]

isoTOP-ABPP ratio Q13418_C346 ([1]; 200 μM, insitu, 231): 0.6
isoTOP-ABPP ratio Q9BXW7_C392 ([2]; 200 μM, insitu, 231): 5.1
isoTOP-ABPP ratio Q9NRG0_C55 ([3]; 200 μM, insitu, 231): 20.0
SMILES: O=C(CCl)NC(=O)NC12CC3CC(CC(C3)C1)C2 [compound 12]

isoTOP-ABPP ratio Q13418_C346 ([1]; 200 μM, insitu, 231): 0.7
isoTOP-ABPP ratio Q13418_C346 ([1]; 200 μM, insitu, ramos): 2.1
isoTOP-ABPP ratio Q9BXW7_C392 ([2]; 200 μM, insitu, 231): 2.0
isoTOP-ABPP ratio Q9NRG0_C55 ([3]; 200 μM, insitu, 231): 1.2
isoTOP-ABPP ratio, O94953_C694 ([4]; 500 μM, invitro, 231): 1.4
isoTOP-ABPP ratio, O94953_C694 ([4]; 500 μM, invitro, ramos): 1.1
SMILES: O=C(CCl)NCCc1c[nH]c2ccccc12 [compound 13]

isoTOP-ABPP ratio (reactivity profile), O94953_C694 ([4]; 500 μm in-vitro ramos): 1.1
SMILES: C=CC(=O)N(Cc1cccnc1)c1ccc(Oc2ccccc2)c(C(F)(F)F)c1 [compound 15]

SMILES: O=C(CCl)N1CCC(C(O)(c2ccccc2)c2ccccc2)CC1 [compound 20]
isoTOP-ABPP ratio (reactivity profile), O94953_C694 ([4]; 500 μm in-vitro ramos): 2.0
isoTOP-ABPP ratio (reactivity profile), O94953_C694 ([4]; 500 μm in-vitro ramos_231): 2.8

isoTOP-ABPP ratio Q13418_C346 ([1]; 200 μM, insitu, 231): 0.5
isoTOP-ABPP ratio Q9BXW7_C392 ([2]; 200 μM, insitu, 231): 1.6
isoTOP-ABPP ratio (reactivity profile), O94953_C694 ([4]; 500 μm in-vitro ramos): 1.8
SMILES: O=C(CCl)NC12CC3CC(CC(C3)C1)C2 [compound 21]
